Our source for the IC50 values is US8039514B2, “Sulfonamide compounds and use thereof” (Asahi Kasei Pharma Corporation, priority 2008, dated 2011).

SMILES strings stand for the structures.

The target of the assay is T1, human calcium-sensing receptor (CaSR) (Homo sapiens, UniProt P41180).
T1 construct: expressed in transfected cells
T1 sequence (P41180 20-1078): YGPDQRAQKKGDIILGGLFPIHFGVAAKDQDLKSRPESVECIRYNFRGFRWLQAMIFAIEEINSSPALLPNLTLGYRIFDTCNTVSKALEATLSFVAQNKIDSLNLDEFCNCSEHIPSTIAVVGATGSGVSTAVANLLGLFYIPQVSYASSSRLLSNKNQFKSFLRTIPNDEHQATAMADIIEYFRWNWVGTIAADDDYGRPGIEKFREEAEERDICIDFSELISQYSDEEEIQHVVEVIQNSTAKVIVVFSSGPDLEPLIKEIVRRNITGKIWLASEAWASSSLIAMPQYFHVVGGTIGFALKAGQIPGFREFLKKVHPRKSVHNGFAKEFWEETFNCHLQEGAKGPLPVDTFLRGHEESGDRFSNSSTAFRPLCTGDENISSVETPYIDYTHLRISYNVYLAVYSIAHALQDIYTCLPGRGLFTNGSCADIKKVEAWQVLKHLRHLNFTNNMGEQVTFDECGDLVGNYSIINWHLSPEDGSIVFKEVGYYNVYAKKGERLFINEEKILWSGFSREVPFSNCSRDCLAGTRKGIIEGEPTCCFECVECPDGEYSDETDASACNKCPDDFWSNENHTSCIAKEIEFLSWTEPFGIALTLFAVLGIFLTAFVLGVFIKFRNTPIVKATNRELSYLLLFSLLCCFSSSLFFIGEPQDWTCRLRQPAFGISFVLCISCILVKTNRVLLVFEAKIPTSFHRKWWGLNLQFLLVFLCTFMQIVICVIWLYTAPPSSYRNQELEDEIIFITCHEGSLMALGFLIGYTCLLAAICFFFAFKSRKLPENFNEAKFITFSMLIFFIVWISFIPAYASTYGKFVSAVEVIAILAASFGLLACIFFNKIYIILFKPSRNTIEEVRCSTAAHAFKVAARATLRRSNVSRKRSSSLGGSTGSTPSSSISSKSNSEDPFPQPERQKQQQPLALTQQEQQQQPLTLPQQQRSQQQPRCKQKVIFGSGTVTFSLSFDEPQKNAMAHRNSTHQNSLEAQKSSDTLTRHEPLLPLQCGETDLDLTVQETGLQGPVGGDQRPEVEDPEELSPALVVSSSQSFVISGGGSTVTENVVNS
As to the kind of experiment: intracellular Ca assay, CaSR antagonist activity in HEK293/hCaSR cells. It counts as cell-based. The note with it: Fura2-AM, inhibition of response to calcium chloride ligand solution, read-out: IC50 values according to the intracellular Ca assay (CaSR antagonist activity). Here is the method:
HEK293 cells stably expressing human calcium-sensing receptor (CaSR) (termed HEK293/hCaSR cells) were used. HEK293/hCaSR cells were cultured in a culture medium [DMEM medium containing 0.5 mg/mL Geneticin, 50 Unit/mL penicillin, 50 μg/mL streptomycin and 10% fetal bovine serum (FBS), all manufactured by Invitrogen] to semiconfluent in an incubator at 37° C. under 5% carbon dioxide atmosphere.
Cultured cells were washed with phosphate buffered saline (PBS(−), manufactured by Dainippon Sumitomo Pharmaceutical Company) which had been prewarmed to 37° C., added with PBS(−) containing 10 mM ethylenediamine tetraacetic acid (EDTA), and then incubated in an incubator at 37° C. for 10 minutes. After adding the culture medium to separate the cells, cell suspension was transferred to a centrifuge tube. Cells were collected by centrifuge at 1,500 rpm for 3 minutes, and resuspended in Ca assay buffer [20 mM HEPES buffer (pH 7.4), 115 mM sodium chloride, 5.4 mM potassium chloride, 0.8 mM magnesium chloride, 0.8 mM calcium chloride, 13.8 mM D(+)-glucose (all manufactured by Wako Pure Chemicals) and 0.1% bovine serum albumin (manufactured by SIGMA)] containing 0.2% Pluronic F-127 (manufactured by Molecular Probes) and […] Fura2-AM (manufactured by DOJINDO LABORATORIES) to obtain a cell suspension of 5×10^6 cells/mL. After incubating at 37° C. for 30 minutes, the cells were washed twice with the Ca assay buffer and suspended in the same buffer to obtain a cell suspension of 1×10^6 cells/60 μL. 60 μL of the cell suspension was aliquoted to each well of a 96 well UV microplate (manufactured by Corning Co.) to give a cell plate.
The test compound was diluted with the Ca assay buffer to five times the final concentration and then 80 μL of the diluted compound was applied to each well of a 96 well round bottomed microplate (manufactured by Corning Co.) to give a sample plate. 80 μL of the Ca assay buffer containing 7.5 mM calcium chloride (i.e., ligand solution) was applied to each well of a 96 well round bottomed microplate to give a ligand plate. Then, thus prepared sample plate, ligand plate, and the cell plate were placed in Functional Drug Screening System (FDSS) 4000 (manufactured by Hamamatsu Photonics K.K.) which had been preswitched on and prewarmed to 37° C. Measurements were then carried out as follows. After incubating the cell plate for 180 seconds, fluorescence intensity was measured every two seconds (excitation wavelength; 340 nm and 380 nm, measurement wavelength; 500 nm). After the measurement for 40 seconds, 20 μL of the test compound solution from the sample plate was added to the cell plate, followed by continuous measurement for 160 seconds. Then, 20 μL of the ligand solution from the ligand plate was added to the cell plate, followed by continuous measurement for 100 seconds.
Amount of change in intracellular Ca concentration is indicated as a peak height of the ratio of the fluorescence intensity with excitation of 340 nm and 380 nm (i.e., fluorescence intensity with excitation at 340 nm/fluorescence intensity with excitation at 380 nm) that is obtained from the difference between the maximum ratio after adding the ligand solution and the ratio before adding the ligand solution. Further, when the peak height obtained from the Ca assay buffer containing no test compound has inhibition ratio of 0% while the peak height obtained from the Ca assay buffer containing no calcium chloride as a ligand solution has inhibition ratio of 100%, inhibition ratio for each test compound (i.e., CaSR antagonist activity) was calculated.

For `CN(C[C@H](O)CNC(C)(C)Cc1ccc2ccccc2c1)S(=O)(=O)c1ccc(-c2ccc(C(=O)O)c(O)c2)cc1` [Exp. 3-46, (R)-3-hydroxy-4′-(N-(2-hydroxy-3-(2-methyl-1-(naphthalen-2-yl)propan-2-ylamino)propyl)-N-methylsulfamoyl)biphenyl-4-carboxylic acid], the concentration for half-maximal inhibition (IC50) (usually the point on the concentration scale where inhibition reaches its midpoint) fell in the range of 0.3 to 1 µM.
The value for `CCc1cc(-c2ccc(CCC(=O)O)cc2)ccc1S(=O)(=O)N(C)C[C@H](O)CNC(C)(C)CCCc1cccc(F)c1` [Exp. 9-90, (R)-3-(3′-ethyl-4′-(N-(3-(5-(3-fluorophenyl)-2-methylpentan-2-ylamino)-2-hydroxypropyl)-N-methylsulfamoyl)biphenyl-4-yl)propionic acid] was not above 0.3 µM.
The value for `CN(C[C@H](O)CNC(C)(C)Cc1ccc2ccccc2c1)S(=O)(=O)c1cccc(-c2cc3c(c(C(=O)O)c2)OCC3)c1` [Exp. 3-13, (R)-5-(3-(N-(2-hydroxy-3-(2-methyl-1-(naphthalen-2-yl)propan-2-ylamino)propyl)-N-methylsulfamoyl)phenyl)-2,3-dihydrobenzofuran-7-carboxylic acid] was 1 to 3 µM; that for `Cc1ccc(-c2ccc(S(=O)(=O)N(C)C[C@H](O)CNC(C)(C)Cc3ccc4ccccc4c3)cc2)cc1C(=O)O` [Exp. 3-32, (R)-4′-(N-(2-hydroxy-3-(2-methyl-1-(naphthalen-2-yl)propan-2-ylamino)propyl)-N-methylsulfamoyl)-4-methylbiphenyl-3-carboxylic acid] was 1 to 3 µM; that for `Cc1ccc(-c2cccc(S(=O)(=O)N(C)C[C@H](O)CNC(C)(C)CC3Cc4ccccc4C3)c2)cc1C(=O)O` [Exp. 3-51, (R)-3′-(N-(3-(1-(2,3-dihydro-1H-inden-2-yl)-2-methylpropan-2-ylamino)-2-hydroxypropyl)-N-methylsulfamoyl)-4-methylbiphenyl-3-carboxylic acid] was 0.3 to 1 µM.
Turning to `CN(C[C@H](O)CNC(C)(C)Cc1ccc2ccccc2c1)S(=O)(=O)c1cccc(-c2ccc(C(=O)O)cc2[N+](=O)[O-])c1` [Exp. 3-20, (R)-3′-(N-(2-hydroxy-3-(2-methyl-1-(naphthalen-2-yl)propan-2-ylamino)propyl)-N-methylsulfamoyl)-2-nitrobiphenyl-4-carboxylic acid], the IC50 was in the range of 1 to 3 µM.
With `CN(C[C@H](O)CNC(C)(C)Cc1ccc2ccccc2c1)S(=O)(=O)c1cccc(-c2ccc(C(=O)O)c(O)c2)c1` [Exp. 3-24, (R)-3-hydroxy-3′-(N-(2-hydroxy-3-(2-methyl-1-(naphthalen-2-yl)propan-2-ylamino)propyl)-N-methylsulfamoyl)biphenyl-4-carboxylic acid] the figure was 0.3 to 1 µM; with `CN(C[C@H](O)CNC(C)(C)CCCc1ccccc1)S(=O)(=O)c1c(Cl)cc(-c2cccc(CCC(=O)O)c2)cc1Cl` [Exp. 6-6, (R)-3-(3′,5′-dichloro-4′-(N-(2-hydroxy-3-(2-methyl-5-phenylpentan-2-ylamino)propyl)-N-methylsulfamoyl)biphenyl-3-yl)propionic acid], not above 0.3 µM; with `Cc1ccc(CC(C)(C)NC[C@@H](O)CN(C)S(=O)(=O)c2cccc(-c3cccc(C(=O)O)c3)c2)cc1F` [Exp. 3-63, (R)-3′-(N-(3-(1-(3-fluoro-4-methylphenyl)-2-methylpropan-2-ylamino)-2-hydroxypropyl)-N-methylsulfamoyl)biphenyl-3-carboxylic acid], 1 to 3 µM.
For `CCc1cc(-c2ccc(CC(=O)O)cc2)ccc1S(=O)(=O)N(C)C[C@H](O)CNC(C)(C)CC1Cc2ccccc2C1` [Exp. 3-147, (R)-2-(4′-(N-(3-(1-(2,3-dihydro-1H-inden-2-yl)-2-methylpropan-2-ylamino)-2-hydroxypropyl)-N-methylsulfamoyl)-3′-ethylbiphenyl-4-yl)acetic acid], the half-inhibitory concentration (IC50) is not above 0.3 µM.
Turning to `COCc1cc(-c2cccc(S(=O)(=O)N(C)C[C@H](O)CNC(C)(C)Cc3ccc4ccccc4c3)c2)ccc1C(=O)O` [Exp. 3-22, (R)-3′-(N-(2-hydroxy-3-(2-methyl-1-(naphthalen-2-yl)propan-2-ylamino)propyl)-N-methylsulfamoyl)-3-(methoxymethyl)biphenyl-4-carboxylic acid], the half-inhibitory concentration (IC50) was 0.3 to 1 µM.
With `CN(C[C@H](O)CNC(C)(C)Cc1ccc2ccccc2c1)S(=O)(=O)Cc1ccc(-c2ccc(CCC(=O)O)cc2)cc1` [Exp. 3-90, (R)-3-(4′-((N-(2-hydroxy-3-(2-methyl-1-(naphthalen-2-yl)propan-2-ylamino)propyl)-N-methylsulfamoyl)methyl)biphenyl-4-yl)propionic acid] the figure was 1 to 3 µM; with `CN(C[C@H](O)CNC(C)(C)Cc1ccc2ccccc2c1)S(=O)(=O)Cc1cccc(-c2ccc(C=CC(=O)O)cc2)c1` [Exp. 3-86, (R)-3-(3′-((N-(2-hydroxy-3-(2-methyl-1-(naphthalen-2-yl)propan-2-ylamino)propyl)-N-methylsulfamoyl)methyl)biphenyl-4-yl)acrylic acid], 0.3 to 1 µM.
For the compound `CN(C[C@H](O)CNC(C)(C)Cc1ccc2ccccc2c1)S(=O)(=O)c1ccc(-c2ccccc2C=CC(=O)O)cc1` [Exp. 3-44, (R)-3-(4′-(N-(2-hydroxy-3-(2-methyl-1-(naphthalen-2-yl)propan-2-ylamino)propyl)-N-methylsulfamoyl)biphenyl-2-yl)acrylic acid], the IC50 lay in the range of 1 to 3 µM.
The value for `CN(C[C@H](O)CNC(C)(C)CC1Cc2ccccc2C1)S(=O)(=O)c1cccc(-c2ccc(C(=O)O)c(Cl)c2)c1` [Exp. 3-54, (R)-3-chloro-3′-(N-(3-(1-(2,3-dihydro-1H-inden-2-yl)-2-methylpropan-2-ylamino)-2-hydroxypropyl)-N-methylsulfamoyl)biphenyl-4-carboxylic acid] was not above 0.3 µM; that for `CN(C[C@H](O)CNC(C)(C)Cc1ccc2ccccc2c1)S(=O)(=O)c1cccc(-c2ccc(NC(=O)CCC(=O)O)cc2)c1` [Exp. 3-21, (R)-4-(3′-(N-(2-hydroxy-3-(2-methyl-1-(naphthalen-2-yl)propan-2-ylamino)propyl)-N-methylsulfamoyl)biphenyl-4-ylamino)-4-oxobutanoic acid] was 0.3 to 1 µM.
